In this experiment the test system is all types and subtypes of influenza tested. In kind it is biochemical, influenza virus. The conditions noted are these: peramivir only 2019/20.

The structures appear in SMILES notation.

Take `CCC(CC)[C@H](NC(C)=O)[C@@H]1[C@H](O)[C@@H](C(=O)O)C[C@H]1N=C(N)N` [Peramivir, peramivir]: the “activity of NAI in the neuraminidase inhibition assay” value is “most potent inhibitor”.

These data come from publication PMC9939793 (Infection and Drug Resistance, 2023).
